Experimental data reported in patent publication US20240050576A1, “METHODS AND COMPOUNDS FOR THE TREATMENT OF GENETIC DISEASE” (Design Therapeutics, Inc., priority 2020, published 2024).

Tested on: human FXN
Test: FXN mRNA expression by qRT-PCR in GM15850 cells after 48 hr compound treatment
Format: cell-based
Conditions: Homo sapiens; GM15850 cells, 48 hr incubation, hFXN normalized to hGAPDH; read-out: EC50 WT (nM, 48 hr)
Description: Cell culture: Cells were cultured in RPMI1640 medium+15% FBS. Cells were maintained at a density between 2e5/mL and 1e6/mL. Cells were centrifuged, resuspended in fresh medium, counted and plated at 150,000 cells per well in 100 uL in a non-coated, flat bottom tissue culture plate.
Compound treatment: 10 mM stock solution of FA GeneTAC was diluted 1:10 in DMSO followed by a 1:100 dilution in growth medium. […] Compound was then diluted at a 1:3 ratio into growth medium containing 0.01% DMSO. 5-point, 3-fold dose response curve was generated. 11 μL of 10× compound was added to wells containing 100 μL cell suspension of GM15850. 11 μL growth medium containing 0.01% DMSO was added to all wells not treated with FA GeneTAC. Cells were allowed to incubate for 48 hrs prior to cell lysis using guanidine isothiocyanate solution.
RNA isolation: Total RNA was isolated and purified in 384-well column filter plates using chaotropic salt.
qRT-PCR: qRT-PCR reactions were assembled using AgPath-ID reagents (Thermo Fisher) using 6 uL mastermix and 4 μL RNA. qRT-PCR TaqMan primer probe sets against human FXN (Assay ID Hs01075496_m1) and human GAPDH (Assay ID Hs00266705_g1) were used to measure the intended targets. qRT-PCR was run on the ThermoFisher QuantStudio 6 PRO instrument using the manufacturer's recommended cycling conditions.
Data analysis: qPCR data was analyzed using Thermo Fisher Design and Analysis software. Data was exported to Excel and hFXN expression was normalized to hGAPDH expression.

| Structure (SMILES) | EC50 [nM] |
| --- | --- |
| Cc1sc2c(c1C)C(c1ccc(Cl)cc1)=N[C@@H](CC(=O)Nc1ccc(OCCOCCOCCOCC(=O)N3CCN(CCOCCOCCOCCNC(=O)CCNC(=O)c4nc(NC(=O)CCNC(=O)c5cc(NC(=O)c6nc(NC(=O)CCNC(=O)c7cc(NC(=O)c8nccn8C)cn7C)cn6C)cn5C)cn4C)CC3)cc1)c1nnc(C)n1-2 [Compound 39] | < 100 |
| Cc1sc2c(c1C)C(c1ccc(Cl)cc1)=N[C@@H](CC(=O)Nc1ccc(OCCOCCOCCOCCN3CCN(CCOCCOCCOCCNC(=O)CCNC(=O)c4nc(NC(=O)CCNC(=O)c5cc(NC(=O)c6nc(NC(=O)CCNC(=O)c7cc(NC(=O)c8nccn8C)cn7C)cn6C)cn5C)cn4C)CC3)cc1)c1nnc(C)n1-2 [Compound 40] | < 100 |
| Cc1noc(C)c1-c1cnc2c(-c3ccc(C(=O)NCCOCCOCCOCCOCCOCCOCCOCCNC(=O)CCNC(=O)c4nc(NC(=O)CCNC(=O)c5cc(NC(=O)c6nc(NC(=O)CCNC(=O)c7cc(NC(=O)c8nccn8C)cn7C)cn6C)cn5C)cn4C)cc3)cn([C@@H](C)c3ccccn3)c2c1 [Compound 41] | 100 to 500 |
| Cc1noc(C)c1-c1cnc2c(-c3ccc(C(=O)NCCOCCOCCOCCOCCOCCOCCOCCOCCNC(=O)CCNC(=O)c4nc(NC(=O)CCNC(=O)c5cc(NC(=O)c6nc(NC(=O)CCNC(=O)c7cc(NC(=O)c8nccn8C)cn7C)cn6C)cn5C)cn4C)cc3)cn([C@@H](C)c3ccccn3)c2c1 [Compound 42] | < 100 |
| COC[C@@H](C)n1c(C2CCN(C(=O)COCCOCCOCCOCCOCCOCCOCCNC(=O)CCNC(=O)c3nc(NC(=O)CCNC(=O)c4cc(NC(=O)c5nc(NC(=O)CCNC(=O)c6cc(NC(=O)c7nccn7C)cn6C)cn5C)cn4C)cn3C)CC2)nc2cnc3cc(-c4c(C)noc4C)c(OC)cc3c21 [Compound 43, N-[5-[(2-[[2-([2-[(23-[4-[7-(3,5-dimethyl-1,2-oxazol-4-yl)-8-methoxy-1-[(2R)-1-methoxypropan-2-yl]imidazo[4,5-c]quinolin-2-yl]piperidin-1-yl]-23-oxo-3,6,9,12,15,18,21-heptaoxatricosan-1-yl)carbamoyl]ethyl]carbamoyl)-1-methylimidazol-4-yl]carbamoyl]ethyl)carbamoyl]-1-methylpyrrol-3-yl]-1-methyl-4-(3-[[1-methyl-4-(1-methylimidazole-2-amido)pyrrol-2-yl]formamido]propanamido) imidazole-2-carboxamide] | > 500 |
| COC[C@@H](C)n1c(C2CCN(C(=O)COCCOCCOCCOCCOCCOCCOCCOCCNC(=O)CCNC(=O)c3nc(NC(=O)CCNC(=O)c4cc(NC(=O)c5nc(NC(=O)CCNC(=O)c6cc(NC(=O)c7nccn7C)cn6C)cn5C)cn4C)cn3C)CC2)nc2cnc3cc(-c4c(C)noc4C)c(OC)cc3c21 [Compound 44] | 100 to 500 |
| CC(=O)N1c2ccc(C3=CCN(C(=O)COCCOCCOCCOCCOCCOCCOCCNC(=O)CCNC(=O)c4nc(NC(=O)CCNC(=O)c5cc(NC(=O)c6nc(NC(=O)CCNC(=O)c7cc(NC(=O)c8nccn8C)cn7C)cn6C)cn5C)cn4C)CC3)cc2N(Cc2ccccc2CO)C[C@@H]1C1CC1 [Compound 45] | 100 to 500 |
| CC(=O)N1c2ccc(C3=CCN(C(=O)COCCOCCOCCOCCOCCOCCOCCOCCNC(=O)CCNC(=O)c4nc(NC(=O)CCNC(=O)c5cc(NC(=O)c6nc(NC(=O)CCNC(=O)c7cc(NC(=O)c8nccn8C)cn7C)cn6C)cn5C)cn4C)CC3)cc2N(Cc2ccccc2CO)C[C@@H]1C1CC1 [Compound 46] | 100 to 500 |
| CC(=O)N1c2ccc(-c3cnc(C(=O)NCCOCCOCCOCCOCCOCCOCCOCCOCCNC(=O)CCNC(=O)c4nc(NC(=O)CCNC(=O)c5cc(NC(=O)c6nc(NC(=O)CCNC(=O)c7cc(NC(=O)c8nccn8C)cn7C)cn6C)cn5C)cn4C)nc3)cc2N(Cc2ccccc2CO)C[C@@H]1C1CC1 [Compound 48, N-(5-[[2-([2-[(2-[[26-([5-[(2S)-1-acetyl-2-cyclopropyl-4-[[2-(hydroxymethyl)phenyl]methyl]-2,3-dihydroquinoxalin-6-yl]pyrimidin-2-yl]formamido)-3,6,9,12,15,18,21,24-octaoxahexacosan-1-yl]carbamoyl]ethyl)carbamoyl]-1-methylimidazol-4-yl]carbamoyl)ethyl]carbamoyl]-1-methylpyrrol-3-yl)-1-methyl-4-(3-[[1-methyl-4-(1-methylimidazole-2-amido)pyrrol-2-yl]formamido]propanamido)imidazole-2-carboxamide] | > 500 |
| CCCNC(=O)CCNC(=O)c1nc(NC(=O)CCNC(=O)c2cc(NC(=O)c3nc(NC(=O)CCNC(=O)c4cc(NC(=O)c5nc(NC(=O)COCCOCCOCCOCCOCCOCCOCCOc6ccc(NC(=O)C[C@@H]7N=C(c8ccc(Cl)cc8)c8c(sc(C)c8C)-n8c(C)nnc87)cc6)cn5C)cn4C)cn3C)cn2C)cn1C [Compound 49] | < 100 |
| CCCNC(=O)CCNC(=O)c1nc(NC(=O)CCNC(=O)c2cc(NC(=O)c3nc(NC(=O)CCNC(=O)c4cc(NC(=O)c5nc(NC(=O)COCCOCCOCCOCCOCCOCCOCCOCCOc6ccc(NC(=O)C[C@@H]7N=C(c8ccc(Cl)cc8)c8c(sc(C)c8C)-n8c(C)nnc87)cc6)cn5C)cn4C)cn3C)cn2C)cn1C [Compound 50] | < 100 |
| CCCNC(=O)c1nc(NC(=O)CCNC(=O)c2cc(NC(=O)c3nc(NC(=O)CCNC(=O)c4cc(NC(=O)c5nc(NC(=O)CCNC(=O)COCCOCCOCCOCCOCCOCCOCCOc6ccc(NC(=O)C[C@@H]7N=C(c8ccc(Cl)cc8)c8c(sc(C)c8C)-n8c(C)nnc87)cc6)cn5C)cn4C)cn3C)cn2C)cn1C [Compound 51] | < 100 |
| CCCNC(=O)c1nc(NC(=O)CCNC(=O)c2cc(NC(=O)c3nc(NC(=O)CCNC(=O)c4cc(NC(=O)c5nc(NC(=O)CCNC(=O)COCCOCCOCCOCCOCCOCCOCCOCCOc6ccc(NC(=O)C[C@@H]7N=C(c8ccc(Cl)cc8)c8c(sc(C)c8C)-n8c(C)nnc87)cc6)cn5C)cn4C)cn3C)cn2C)cn1C [Compound 52] | < 100 |
| Cc1sc2c(c1C)C(c1ccc(Cl)cc1)=N[C@@H](CC(=O)Nc1ccc(OCCOCCOCCOCCOCCOCCC(=O)N(C)CCCN(C)CCCNC(=O)CCNC(=O)c3nc(NC(=O)CCNC(=O)c4cc(NC(=O)c5nc(NC(=O)CCNC(=O)c6cc(NC(=O)c7nccn7C)cn6C)cn5C)cn4C)cn3C)cc1)c1nnc(C)n1-2 [Compound 53] | 100 to 500 |
| Cc1sc2c(c1C)C(c1ccc(Cl)cc1)=N[C@@H](CC(=O)Nc1ccc(OCCOCCOCCOCCOCCOCCC(=O)N(C)CCCN(C)CCCN(C)C(=O)CCNC(=O)c3nc(NC(=O)CCNC(=O)c4cc(NC(=O)c5nc(NC(=O)CCNC(=O)c6cc(NC(=O)c7nccn7C)cn6C)cn5C)cn4C)cn3C)cc1)c1nnc(C)n1-2 [Compound 54] | 100 to 500 |
| Cc1sc2c(c1C)C(c1ccc(Cl)cc1)=N[C@@H](CC(=O)Nc1ccc(OCCOCCOCCOCCOCCOCCOCCC(=O)NCCCN(C)CCCNC(=O)c3cc(NC(=O)c4nc(NC(=O)CCNC(=O)c5cc(NC(=O)c6nc(NC(=O)CCNC(=O)c7cc(NC(=O)c8nccn8C)cn7C)cn6C)cn5C)cn4C)cn3C)cc1)c1nnc(C)n1-2 [Compound 55] | 100 to 500 |
| Cc1sc2c(c1C)C(c1ccc(Cl)cc1)=N[C@@H](CC(=O)Nc1ccc(OCCOCCOCCOCCOCCOCCOCCOCCC(=O)NCCCN(C)CCCNC(=O)c3cc(NC(=O)c4nc(NC(=O)CCNC(=O)c5cc(NC(=O)c6nc(NC(=O)CCNC(=O)c7cc(NC(=O)c8nccn8C)cn7C)cn6C)cn5C)cn4C)cn3C)cc1)c1nnc(C)n1-2 [Compound 56] | 100 to 500 |
| Cc1sc2c(c1C)C(c1ccc(Cl)cc1)=N[C@@H](CC(=O)Nc1ccc(OCCOCCOCCOCCOCCOCCOCCOCC(=O)NCCCN(C)CCCNC(=O)c3cc(NC(=O)c4nc(NC(=O)CCNC(=O)c5cc(NC(=O)c6nc(NC(=O)CCNC(=O)c7cc(NC(=O)c8nccn8C)cn7C)cn6C)cn5C)cn4C)cn3C)cc1)c1nnc(C)n1-2 [Compound 57] | 100 to 500 |
| Cc1sc2c(c1C)C(c1ccc(Cl)cc1)=N[C@@H](CC(=O)Nc1ccc(OCCOCCOCCOCCOCCOCCC(=O)NCCCOCCCNC(=O)CCNC(=O)c3nc(NC(=O)CCNC(=O)c4cc(NC(=O)c5nc(NC(=O)CCNC(=O)c6cc(NC(=O)c7nccn7C)cn6C)cn5C)cn4C)cn3C)cc1)c1nnc(C)n1-2 [Compound 58] | < 100 |
| Cc1sc2c(c1C)C(c1ccc(Cl)cc1)=N[C@@H](CC(=O)Nc1ccc(OCCOCCOCCOCCOCCOCCC(=O)NCCCCCCCNC(=O)CCNC(=O)c3nc(NC(=O)CCNC(=O)c4cc(NC(=O)c5nc(NC(=O)CCNC(=O)c6cc(NC(=O)c7nccn7C)cn6C)cn5C)cn4C)cn3C)cc1)c1nnc(C)n1-2 [Compound 59] | < 100 |
| Cc1sc2c(c1C)C(c1ccc(Cl)cc1)=N[C@@H](CC(=O)Nc1ccc(CCCOCCOCCOCCOCCOCCC(=O)NCCCN(C)CCCNC(=O)CCNC(=O)c3nc(NC(=O)CCNC(=O)c4cc(NC(=O)c5nc(NC(=O)CCNC(=O)c6cc(NC(=O)c7nccn7C)cn6C)cn5C)cn4C)cn3C)cc1)c1nnc(C)n1-2 [Compound 60] | 100 to 500 |
| Cc1sc2c(c1C)C(c1ccc(Cl)cc1)=N[C@@H](CC(=O)Nc1cccc(OCCOCCOCCOCCOCCOCCC(=O)NCCCN(C)CCCNC(=O)CCNC(=O)c3nc(NC(=O)CCNC(=O)c4cc(NC(=O)c5nc(NC(=O)CCNC(=O)c6cc(NC(=O)c7nccn7C)cn6C)cn5C)cn4C)cn3C)c1)c1nnc(C)n1-2 [Compound 62] | < 100 |
| Cc1sc2c(c1C)C(c1ccc(Cl)cc1)=N[C@@H](CC(=O)Nc1ccc(CCCOCCOCCOCCOCCOCCOCCOCCOCCNC(=O)CCNC(=O)c3nc(NC(=O)CCNC(=O)c4cc(NC(=O)c5nc(NC(=O)CCNC(=O)c6cc(NC(=O)c7nccn7C)cn6C)cn5C)cn4C)cn3C)cc1)c1nnc(C)n1-2 [Compound 63] | < 100 |
